Assay results reported in US9314026B2, “Heterocyclylpyri(mi)dinylpyrazole” (Bayer Intellectual Property GmbH, priority 2011, dated 2016).
Where two headings read alike, the source gives them in different places.

Experiments:
Alternaria solani = test: Alternaria test (tomato)/preventive; assay type: in vivo; conditions: 168 h, 500 ppm of active ingredient, preventive, evaluated 7 days after inoculation, read-out: efficacy
Protocol: Alternaria Test (Tomato)/Preventive Solvent: 49 parts by weight of N,N-Dimethylformamide Emulsifier: 1 part by weight of Alkylarylpolyglycolether To produce a suitable preparation of active compound, 1 part by weight of active compound is mixed with the stated amounts of solvent and emulsifier, and the concentrate is diluted with water to the desired concentration. To test for preventive activity, young plants are sprayed with the preparation of active compound at the stated rate of application. One day after this treatment, the plants are inoculated with an aqueous spore suspension of Alternaria solani. […] Then the plants are placed in an incubation cabinet at approximately 20° C. and a relative atmospheric humidity of 96%.

Leptosphaeria nodorum = test: Leptosphaeria test (wheat)/preventive; assay type: in vivo; conditions: Parastagonospora nodorum, 500 ppm of active ingredient, preventive, evaluated 7-9 days after inoculation, read-out: efficacy
Protocol: (§1) Leptosphaeria Test (Wheat)/Preventive Solvent: 49 parts by weight of N,N-Dimethylformamide Emulsifier: 1 part by weight of Alkylarylpolyglycolether To produce a suitable preparation of active compound, 1 part by weight of active compound is mixed with the stated amounts of solvent and emulsifier, and the concentrate is diluted with water to the desired concentration. To test for preventive activity, young plants are sprayed with a preparation of active compound at the stated rate of application. One day after this treatment, the plants are inoculated with an aqueous spore suspension of Leptosphaeria nodorum.

Sphaerotheca fuliginea = test: Sphaerotheca test (cucumber)/preventive; assay type: in vivo; conditions: Podosphaera fuliginea, 168 h, 500 ppm of active ingredient, preventive, evaluated 7 days after inoculation, 0% = untreated control, 100% = no disease, read-out: efficacy
Protocol: as §1, with “Sphaerotheca Test (Cucumber)/Preventive” for “Leptosphaeria Test (Wheat)/Preventive”, “Sphaerotheca Test (Cucumber)/Preventive Solvent: 49” for “Leptosphaeria Test (Wheat)/Preventive Solvent: 49”, “sprayed with the preparation of” for “sprayed with a preparation of”, “suspension of Sphaerotheca fuliginea.” for “suspension of Leptosphaeria nodorum.”

Pyrenophora teres = test: Pyrenophora test (barley)/preventive; assay type: in vivo; conditions: 500 ppm of active ingredient, preventive, evaluated 7-9 days after inoculation, read-out: efficacy
Protocol: as §1, with “Pyrenophora Test (Barley)/Preventive” for “Leptosphaeria Test (Wheat)/Preventive”, “Pyrenophora Test (Barley)/Preventive Solvent: 49” for “Leptosphaeria Test (Wheat)/Preventive Solvent: 49”, “sprayed with the preparation of” for “sprayed with a preparation of”, “suspension of Pyrenophora teres.” for “suspension of Leptosphaeria nodorum.”

Puccinia recondita = test: Puccinia test (wheat)/preventive; assay type: in vivo; conditions: 500 ppm of active ingredient, preventive, evaluated 7-9 days after inoculation, read-out: efficacy
Protocol: as §1, with “Puccinia Test (Wheat)/Preventive” for “Leptosphaeria Test (Wheat)/Preventive”, “sprayed with the preparation of” for “sprayed with a preparation of”, “suspension of Puccinia recondita.” for “suspension of Leptosphaeria nodorum.”

Pyricularia oryzae = test: whole plant or invertebrate; assay type: in vivo; conditions: 168 h, read-out: efficacy
[1] = determination of the log P values by HPLC on a reverse phase column (C18), EEC-Directive 79/831 Annex V.A8; assay type: physicochemical
Protocol: Method A Note on the determination of the log P values and mass detection: The stated log P values were determined in accordance with EEC-Directive 79/831 Annex V.A8 by HPLC (High Performance Liquid Chromatography) on a reverse phase column (C18). […] The mass detection was effected with an […] system. Method B Note on the determination of the log P values and mass detection: The stated log P values were determined in accordance with EEC-Directive 79/831 Annex V.A8 by HPLC (High Performance Liquid Chromatography) on a reverse phase column (C18). […] The mass detection was effected with the Micronass ZQ2000 mass detector from Waters. Method C Note on the determination of the log P values and mass detection: The stated log P values were determined in accordance with EEC-Directive 79/831 Annex V.A8 by UPLC (Ultra Performance Liquid Chromatography) on a reverse phase column (C18). […] The mass detection was effected with the LCT Premier or SQD mass detector from Waters.

| Structure (SMILES) | chromatographic logP ([1]; pH 2.3) | chromatographic logP ([1]; pH 2.7) | also measured |
| --- | --- | --- | --- |
| O=C(C1CC1)N(C(=O)C1CC1)c1cc(-c2c(-c3ccc(F)cc3)nn3c2CCC3)ccn1 [Example 12, N-(cyclopropylcarbonyl)-N-{4-[2-(4-fluorophenyl)-5,6-dihydro-4H-pyrrolo[1,2-b]pyrazol-3-yl]pyridin-2-yl}cyclopropanecarboxamide] | – | – | pest or weed control at 500 ppm (Alternaria solani): 80%; pest or weed control at 500 ppm (Leptosphaeria nodorum): 95%; pest or weed control at 500 ppm (Sphaerotheca fuliginea): 100%; pest or weed control at 500 ppm (Pyrenophora teres): 95%; pest or weed control at 500 ppm (Puccinia recondita): 95%; pest or weed control at 500 ppm (Pyricularia oryzae): 80%; chromatographic logP [1]: 2.91 |
| CC(C)CC(=O)N(C(=O)CC(C)C)c1cc(-c2c(-c3ccc(F)cc3)nn3c2CCOC3C)ccn1 (stereo not drawn) [Example 13, N-{4-[2-(4-fluorophenyl)-7-methyl-4,5-dihydropyrazolo[1,5-c][1,3]oxazin-3-yl]pyridin-2-yl}-3-methyl-N-(3-methylbutanoyl)butanamide] | – | – | pest or weed control at 500 ppm (Alternaria solani): 78%; pest or weed control at 500 ppm (Leptosphaeria nodorum): 89%; pest or weed control at 500 ppm (Sphaerotheca fuliginea): 93%; pest or weed control at 500 ppm (Pyrenophora teres): 89%; chromatographic logP [1]: 5.01 |
| Nc1cc(-c2c(-c3ccc(F)cc3)nn3c2CCC3)ccn1 [[II-1], 4-[2-(4-fluorophenyl)-5,6-dihydro-4H-pyrrolo[1,2-b]pyrazol-3-yl]pyridin-2-amine] | 1.02 | 1.02 | – |
| CC1(C)OB(c2c(-c3ccc(F)c(F)c3)nn3c2CCC3)OC1(C)C [[III-2], 2-(3,4-difluorophenyl)-3-(4,4,5,5-tetramethyl-1,3,2-dioxaborolan-2-yl)-5,6-dihydro-4H-pyrrolo[1,2-b]pyrazole] | – | 4.3 | – |
| O=C(CC1CC1)Nc1cc(-c2c(-c3csc(Cl)c3)nn3c2CCC3)ccn1 [[XI-25], N-{4-[2-(5-chloro-3-thienyl)-5,6-dihydro-4H-pyrrolo[1,2-b]pyrazol-3-yl]pyridin-2-yl}-2-cyclopropylacetamide] | 2.4 | – | – |
| CCC(=O)Nc1cc(-c2c(-c3ccc(F)cc3)nn3c2CCC3CC)ccn1 (stereo not drawn) [[XI-16], N-{4-[6-ethyl-2-(4-fluorophenyl)-5,6-dihydro-4H-pyrrolo[1,2-b]pyrazol-3-yl]pyridin-2-yl}propanamide] | 2.3 | – | – |
| OCCCc1cc(-c2ccc(F)c(F)c2)n[nH]1 [[XIV-2], 3-[3-(3,4-difluorophenyl)-1H-pyrazol-5-yl]propan-1-ol] | 1.73 | 1.73 | – |
| CCC1CCc2c(-c3ccnc(NC(=O)CC4CC4)c3)c(-c3ccc(F)cc3)nn21 (stereo not drawn) [[XI-26], 2-cyclopropyl-N-{4-[6-ethyl-2-(4-fluorophenyl)-5,6-dihydro-4H-pyrrolo[1,2-b]pyrazol-3-yl]pyridin-2-yl}acetamide] | 2.81 | – | – |
| COC(=O)N(C(=O)C1CC1)c1cc(-c2c(-c3ccc(F)cc3)nn3c2CCC3)ccn1 [Example 15, methyl (cyclopropylcarbonyl){4-[2-(4-fluorophenyl)-5,6-dihydro-4H-pyrrolo[1,2-b]pyrazol-3-yl]pyridin-2-yl}carbamate] | – | – | chromatographic logP [1]: 2.54 |
| CCC(=O)Nc1cc(-c2c(-c3ccccc3)nn3c2C(C)CC3)ccn1 (stereo not drawn) [[XI-2], N-[4-(4-methyl-2-phenyl-5,6-dihydro-4H-pyrrolo[1,2-b]pyrazol-3-yl)pyridin-2-yl]propanamide] | 1.87 | – | – |
| O=C(Nc1cc(-c2c(-c3ccc(F)cc3)nn3c2CCC3)ccn1)C1CC1 [[XI-4], N-{4-[2-(4-fluorophenyl)-5,6-dihydro-4H-pyrrolo[1,2-b]pyrazol-3-yl]pyridin-2-yl}cyclopropanecarboxamide] | 1.73 | – | – |
| CCC1CCc2c(-c3ccnc(NC(C)=O)c3)c(-c3ccc(F)cc3)nn21 (stereo not drawn) [[XI-6], N-{4-[6-ethyl-2-(4-fluorophenyl)-5,6-dihydro-4H-pyrrolo[1,2-b]pyrazol-3-yl]pyridin-2-yl}acetamide] | 1.96 | – | – |
| O=C(Nc1cc(-c2c(-c3ccc(F)cc3)nn3c2CCC3)ccn1)C1CCOC1 (stereo not drawn) [[XI-24], N-{4-[2-(4-fluorophenyl)-5,6-dihydro-4H-pyrrolo[1,2-b]pyrazol-3-yl]pyridin-2-yl}tetrahydrofuran-3-carboxamide] | 1.69 | – | – |
| Fc1ccc(-c2cc3n(n2)CCC3)cc1 [[VI-1], 2-(4-fluorophenyl)-5,6-dihydro-4H-pyrrolo[1,2-b]pyrazole] | 2.39 | 2.39 | – |
| O=C(CC1CC1)Nc1cc(-c2c(-c3ccc(F)cc3)nn3c2CCC3)ccn1 [[XI-13], 2-cyclopropyl-N-{4-[2-(4-fluorophenyl)-5,6-dihydro-4H-pyrrolo[1,2-b]pyrazol-3-yl]pyridin-2-yl}acetamide] | 2.08 | – | – |
| Fc1ccc(-c2cc3n(n2)CCC3)cc1F [[VI-2], 2-(3,4-difluorophenyl)-5,6-dihydro-4H-pyrrolo[1,2-b]pyrazole] | 2.69 | 2.69 | – |
| CC1OCCc2c(-c3ccnc(NC(=O)C4CC4)c3)c(-c3ccc(F)cc3)nn21 (stereo not drawn) [[XI-23], N-{4-[2-(4-fluorophenyl)-7-methyl-4,5-dihydropyrazolo[1,5-c][1,3]oxazin-3-yl]pyridin-2-yl}cyclopropanecarboxamide] | 2.33 | – | – |
| Nc1cc(-c2c(-c3ccc(F)c(Cl)c3)nn3c2CCC3)ccn1 [[II-2], 4-[2-(3-chloro-4-fluorophenyl)-5,6-dihydro-4H-pyrrolo[1,2-b]pyrazol-3-yl]pyridin-2-amine] | 1.28 | 1.28 | – |
| O=C(CCCCO)CC(=O)c1ccc(F)cc1 [[XIII-4], 1-(4-fluorophenyl)-7-hydroxyheptane-1,3-dione] | – | 2.3 | – |
| CC(C)C(=O)Nc1cc(-c2c(-c3ccc(F)cc3)nn3c2CCC3)ccn1 [[XI-8], N-{4-[2-(4-fluorophenyl)-5,6-dihydro-4H-pyrrolo[1,2-b]pyrazol-3-yl]pyridin-2-yl}-2-methylpropanamide] | 1.97 | – | – |
| CC1CCc2c(I)c(-c3ccc(F)cc3)nn21 (stereo not drawn) [[IV-5], 2-(4-fluorophenyl)-3-iodo-6-methyl-5,6-dihydro-4H-pyrrolo[1,2-b]pyrazole] | 3.78 | – | chromatographic logP ([1]; pH 2.5): 3.78 |
| CCC(=S)Nc1cc(-c2c(-c3ccc(F)cc3)nn3c2CCC3)ccn1 [[XI-9], N-{4-[2-(4-fluorophenyl)-5,6-dihydro-4H-pyrrolo[1,2-b]pyrazol-3-yl]pyridin-2-yl}propanethioamide] | 2.74 | – | – |
| CS(=O)(=O)OCCCc1cc(-c2ccc(F)c(F)c2)n[nH]1 [[VII-3], 3-[3-(3,4-difluorophenyl)-1H-pyrazol-5-yl]propyl methanesulfonate] | – | 2.17 | – |
